Experimental data taken from patent publication US20210155644A1, “CYCLOPENTENYL PURINE DERIVATIVE OR SALT THEREOF” (Fujifilm Corporation, priority 2018, published 2021).
Like-named read-outs stand apart in the source and are kept apart here.

System: adenovirus type 6 (ADV6)
Assay: Evaluation of anti-adenovirus activity: CRL-11516 cells infected with ADV6, anti-hexon staining, count of stained cells
Assay type: cell-based
Protocol: A system in which CRL-11516 cells (available from ATCC) were infected with adenovirus type 6 (hereinafter, referred to as ADV6) was constructed, and a test for evaluating the anti-adenovirus activity of the compound according to the embodiment of the present invention and the compound of Comparative Example was carried out using the system. The test for evaluating the anti-adenovirus activity was carried out according to the method described below.
CRL-11516 cells were added to a 96-well plate at a cell density of 1×10^4 cells/well and cultured at 37° C. for 24 hours. After the culture was completed, the cell culture liquid was removed, and a serial dilution (100 μL) of the compound according to the embodiment of the present invention or the compound of Comparative Example was added. ADV6 (corresponding to 50TCID50) was added thereto, followed by culturing at 37° C. for 48 hours.
After the culture was completed, the infected cells were stained using Adeno-X Rapid Titer Kit (manufactured by Takara Bio Inc.). 100% methanol was added thereto and the cells were fixed at −20° C. for 10 minutes. The plate was washed three times with phosphate buffered saline (hereinafter, referred to as PBS) and then Mouse Anti-Hexon Antibody was added thereto, followed by incubation at 37° C. for 1 hour. After the incubation was completed, the plate was washed three times with PBS, and Rat Anti-Mouse Antibody was added thereto, followed by incubation at 37° C. for 1 hour. After the incubation was completed, a mixed staining solution of Stable Peroxidase Buffer:DAB Substrate=10:1 was added thereto, followed by incubation at room temperature for 10 minutes for staining of the cells.
The number of dark brown-stained cells was counted under a microscope, and the concentration of the test drug that reduces the dark brown-stained cells by 50% was defined as EC50. EC50 values were calculated for the triplicate test results, and a mean value and a standard deviation thereof were determined.

[1] = CRL-11516 cells infected with ADV6, 48 hours culture, concentration reducing dark brown-stained cells by 50%, read-out: Anti-AdV activity EC50
[2] = Human mastadenovirus C, 48 h, CRL-11516 cells infected with ADV6, 48 hours culture, concentration reducing dark brown-stained cells by 50%, read-out: Anti-AdV activity EC50

SMILES | EC50 [1] | EC50 [2] | other results
CC(C)OC(=O)[C@H](C)NP(=O)(OC[C@@H]1C=C[C@H](n2cnc3c(Cl)nc(N)nc32)C1)Oc1ccccc1 (stereo partly drawn) [Example 2-2-1, isopropyl ((((1S,4R)-4-(2-amino-6-chloro-9H-purin-9-yl)cyclopent-2-en-1-yl)methoxy)(phenoxy)phosphoryl)-L-alaninate] | 100 to 1000 nM |  | 
COc1nc(N)nc2c1ncn2[C@H]1C=C[C@@H](COP(=O)(N[C@@H](C)C(=O)OC(C)C)Oc2ccc(Cl)cc2)C1 (single isomer, unassigned) [Example 4-8-2] | < 10 nM |  | 
CC(C)OC(=O)[C@H](C)N[P@](=O)(OC[C@@H]1C=C[C@H](n2cnc3c(OC4CCC4)nc(N)nc32)C1)Oc1ccccc1 [Example 2-2-36, Isopropyl ((S)-(((1S,4R)-4-(2-amino-6-cyclobutoxy-9H-purin-9-yl)cyclopent-2-en-1-yl)methoxy)(phenoxy)phosphoryl)-L-alaninate] |  | 100 to 1000 nM | 
CCOC(=O)[C@H](C)NP(=O)(OC[C@@H]1C=C[C@H](n2cnc3c(OC)nc(N)nc32)C1)Oc1ccccc1 (stereo partly drawn) [Example 1-2-34, ethyl ((((1S,4R)-4-(2-amino-6-methoxy-9H-purin-9-yl)cyclopent-2-en-1-yl)methoxy)(phenoxy)phosphoryl)-L-alaninate] |  | 10 to 100 nM | 
COc1nc(N)nc2c1ncn2[C@H]1C=C[C@@H](COP(=O)(N[C@@H](C)C(=O)OC2CC2)Oc2ccccc2)C1 (stereo partly drawn) [Example 1-2-58, cyclopropyl ((((1S,4R)-4-(2-amino-6-methoxy-9H-purin-9-yl)cyclopent-2-en-1-yl)methoxy)(phenoxy)phosphoryl)-L-alaninate] |  | 10 to 100 nM | 
COc1cccc(OP(=O)(N[C@@H](C)C(=O)OC(C)C)OC[C@@H]2C=C[C@H](n3cnc4c(OC)nc(N)nc43)C2)c1 (stereo partly drawn) [Example 6-2-7, isopropyl ((((1S,4R)-4-(2-amino-6-methoxy-9H-purin-9-yl)cyclopent-2-en-1-yl)methoxy)(3-methoxyphenoxy)phosphoryl)-L-alaninate] |  | 10 to 100 nM | 
COc1nc(N)nc2c1ncn2[C@H]1C=C[C@@H](COP(=O)(OCCSC(=O)C(C)(C)C)Oc2ccccc2)C1 (stereo partly drawn) [Example 4-7-1, S-(2-(((((1 S,4R)-4-(2-amino-6-methoxy-9H-purin-9-yl)cyclopent-2-en-1-yl)methoxy) (phenoxy)phosphoryl)oxy)ethyl) 2,2-dimethylpropanethioate] |  |  | EC50 (Human mastadenovirus C, 48 h, read-out: Anti-AdV activity EC50, CRL-11516 cells infected with ADV6, 48 hours culture, concentration reducing dark brown-stained cells by 50%): 10 to 100 nM
COC(=O)[C@H](C)NP(=O)(OCCSC(=O)C(C)(C)C)OC[C@@H]1C=C[C@H](n2cnc3c(OC)nc(N)nc32)C1 (stereo partly drawn) [Example 4-6-2, ((((1S,4R)-4-(2-amino-6-methoxy-9H-purin-9-yl)cyclopent-2-en-1-yl)methoxy)(2-(pivaloylthio)ethoxy)phosphoryl)-L-alaninate] | < 10 nM |  | 
COc1nc(N)nc2c1ncn2[C@H]1C=C[C@@H](COP(=O)(N[C@@H](CC(C)C)C(=O)OC(C)C)Oc2ccccc2)C1 (single isomer, unassigned) [Example 7-1-1] | 10 to 100 nM |  | 
COc1nc(N)nc2c1ncn2[C@H]1C=C[C@@H](COP(=O)(N[C@@H](C)C(=O)OC(C)C)Oc2ccccc2)C1 (stereo partly drawn) [Example 4-4-2, Isopropyl ((((1 S,4R)-4-(2-amino-6-methoxy-9H-purin-9-yl)cyclopent-2-en-1-yl)methoxy)(phenoxy)phosphoryl)-L-alaninate] | 100 to 1000 nM |  | 
COC(=O)[C@H](C)NP(=O)(OC[C@@H]1C=C[C@H](n2cnc3c(OC)nc(N)nc32)C1)Oc1ccccc1 (stereo partly drawn) [Example 4-2-1, methyl ((((1 S,4R)-4-(2-amino-6-methoxy-9H-purin-9-yl)cyclopent-2-en-1-yl)methoxy)(phenoxy)phosphoryl)-L-alaninate] |  | 10 to 100 nM | 
COCCOc1nc(N)nc2c1ncn2[C@H]1C=C[C@@H](CO[P@](=O)(N[C@@H](C)C(=O)OC(C)C)Oc2ccccc2)C1 [Example 2-2-21, isopropyl ((R)-(((1S,4R)-4-(2-amino-6-(2-methoxyethoxy)-9H-purin-9-yl)cyclopent-2-en-1-yl)methoxy) (phenoxy)phosphoryl)-L-alaninate] |  | 10 to 100 nM | 
CC(C)OC(=O)[C@H](C)N[P@@](=O)(OC[C@@H]1C=C[C@H](n2cnc3c(OC(C)C)nc(N)nc32)C1)Oc1ccccc1 [Example 2-2-19, isopropyl ((R)-(((1S,4R)-4-(2-amino-6-isopropoxy-9H-purin-9-yl)cyclopent-2-en-1-yl)methoxy)(phenoxy)phosphoryl)-L-alaninate] |  | 10 to 100 nM | 
COC(=O)[C@H](C)NP(=O)(OC[C@@H]1C=C[C@H](n2cnc3c(N)nc(N)nc32)C1)Oc1ccc(Br)cc1 (stereo partly drawn) [Example 1-2-6, Methyl ((4-bromophenoxy)(((1S,4R)-4-(2,6-diamino-9H-purin-9-yl)cyclopent-2-en-1-yl)methoxy)phosphoryl)-L-alaninate] |  | 100 to 1000 nM | 
COc1nc(N)nc2c1ncn2[C@H]1C=C[C@@H](COP(=O)(OCCSC(=O)C(C)(C)C)Oc2ccccc2)C1 (stereo partly drawn) [Example 4-7-2, S-(2-(((((1 S,4R)-4-(2-amino-6-methoxy-9H-purin-9-yl)cyclopent-2-en-1-yl)methoxy) (phenoxy)phosphoryl)oxy)ethyl) 2,2-dimethylpropanethioate] |  |  | EC50 (read-out: Anti-AdV activity EC50, CRL-11516 cells infected with ADV6, 48 hours culture, concentration reducing dark brown-stained cells by 50%): 10 to 100 nM
CC(C)OC(=O)[C@H](C)N[P@](=O)(OC[C@@H]1C=C[C@H](n2cnc3c(OC(C)C)nc(N)nc32)C1)Oc1ccccc1 [Example 2-2-20, Isopropyl ((S)-(((1S,4R)-4-(2-amino-6-isopropoxy-9H-purin-9-yl)cyclopent-2-en-1-yl)methoxy) (phenoxy)phosphoryl)-L-alaninate] |  | 100 to 1000 nM | 
COc1nc(N)nc2c1ncn2[C@H]1C=C[C@@H](COP(=O)(N[C@@H](C)C(=O)OC(C)C)Oc2ccccc2)C1 (stereo partly drawn) [Example 2-2-12, isopropyl ((((1S,4R)-4-(2-amino-6-methoxy-9H-purin-9-yl)cyclopent-2-en-1-yl)methoxy)(phenoxy)phosphoryl)-L-alaninate] | 100 to 1000 nM |  | 
COc1nc(N)nc2c1ncn2[C@H]1C=C[C@@H](COP(=O)(N[C@@H](CC(C)C)C(=O)OC(C)C)Oc2ccccc2)C1 (single isomer, unassigned) [Example 7-1-2] | 100 to 1000 nM |  | 
CC(C)OC(=O)[C@H](C)N[P@](=O)(OC[C@@H]1C=C[C@H](n2cnc3c(N(C)C)nc(N)nc32)C1)Oc1ccccc1 [Example 2-2-26, Isopropyl ((S)-(((1S,4R)-4-(2-amino-6-(dimethylamino)-9H-purin-9-yl)cyclopent-2-en-1-yl)methoxy) (phenoxy)phosphoryl)-L-alaninate] |  | 100 to 1000 nM | 
CC(C)OC(=O)[C@H](C)N[P@@](=O)(OC[C@@H]1C=C[C@H](n2cnc3c(N4CCC4)nc(N)nc32)C1)Oc1ccccc1 [Example 2-2-37, isopropyl ((R)-(((1S,4R)-4-(2-amino-6-(azetidin-1-yl)-9H-purin-9-yl)cyclopent-2-en-1-yl)methoxy)(phenoxy)phosphoryl)-L-alaninate] |  | 10 to 100 nM | 
COC(=O)C(C)(C)NP(=O)(OC[C@@H]1C=C[C@H](n2cnc3c(OC)nc(N)nc32)C1)Oc1ccc(Br)cc1 (stereo partly drawn) [Example 1-2-49, Methyl 2-(((((1S,4R)-4-(2-amino-6-methoxy-9H-purin-9-yl)cyclopent-2-en-1-yl)methoxy)(4-bromophenoxy)phosphoryl)amino)-2-methylpropanoate] |  | < 10 nM | 
CC(C)OC(=O)[C@H](C)NP(=O)(OC[C@@H]1C=C[C@H](n2cnc3c(Cl)nc(N)nc32)C1)Oc1ccc(Cl)cc1 (stereo partly drawn) [Example 1-2-70, isopropyl ((((1S,4R)-4-(2-amino-6-chloro-9H-purin-9-yl)cyclopent-2-en-1-yl)methoxy)(4-chlorophenoxy)phosphoryl)-L-alaninate] |  | 10 to 100 nM | 
